Laboratory results: ChEMBL document CHEMBL1909639, “Synthesis, stereochemistry and in vitro antimicrobial evaluation of novel 2-[(2,4-diaryl-3-azabicyclo[3.3.1]nonan-9-ylidene)hydrazono]-4-phenyl-2,3-dihydrothiazoles” (2011)
≈ marks a conversion by molar mass, not a printed value. Calls of active or inactive are those of the source. The calls are words filed in the database; no cut-off is given here.

Tests used:
Aspergillus flavus [1] = assay: Antifungal activity against Aspergillus flavus ATCC 485 after 72 to 96 hrs by twofold serial dilution method; type: functional
Staphylococcus aureus = assay: Antibacterial activity against Staphylococcus aureus ATCC 25825 after 24 hrs by twofold serial dilution method; type: functional; details: ATCC 25825, 24 h
Cryptococcus neoformans [2] = assay: Antifungal activity against Cryptococcus neoformans ATCC 3312 after 72 to 96 hrs by twofold serial dilution method; type: functional
Bacillus subtilis [3] = assay: Antibacterial activity against Bacillus subtilis ATCC 451 after 24 hrs by twofold serial dilution method; type: functional; details: ATCC 451, 24 h
Escherichia coli [4] = assay: Antibacterial activity against Escherichia coli ATCC 25835 after 24 hrs by twofold serial dilution method; type: functional; details: ATCC 25835, 24 h
Rhizopus [5] = assay: Antifungal activity against Rhizopus sp. ATCC 2915 after 72 to 96 hrs by twofold serial dilution method; type: functional
Klebsiella pneumoniae [6] = assay: Antibacterial activity against Klebsiella pneumoniae ATCC 15490 after 24 hrs by twofold serial dilution method; type: functional; details: ATCC 15490, 24 h
Aspergillus niger = assay: Antifungal activity against Aspergillus niger ATCC 598 after 72 to 96 hrs by twofold serial dilution method; type: functional
Candida albicans = assay: Antifungal activity against Candida albicans ATCC 3122 by twofold serial dilution method; type: functional
Salmonella typhi [7] = assay: Antibacterial activity against Salmonella typhi ATCC 24915 after 24 hrs by twofold serial dilution method; type: functional, Salmonella enterica subsp. enterica serovar Typhi; details: Salmonella enterica, ATCC 24915, 24 h
Cryptococcus neoformans [8] = assay: Antifungal activity against Cryptococcus neoformans ATCC 3312 at 200 ug/mL after 72 to 96 hrs by twofold serial dilution method; type: functional, organism-based
Klebsiella pneumoniae [9] = assay: Antibacterial activity against Klebsiella pneumoniae ATCC 15490 at 200 ug/mL after 24 hrs by twofold serial dilution method; type: functional, organism-based
Aspergillus flavus [10] = assay: Antifungal activity against Aspergillus flavus ATCC 485 at 200 ug/mL after 72 to 96 hrs by twofold serial dilution method; type: functional, organism-based
Escherichia coli [11] = assay: Antibacterial activity against Escherichia coli ATCC 25835 at 200 ug/mL after 24 hrs by twofold serial dilution method; type: functional, organism-based
Salmonella typhi [12] = assay: Antibacterial activity against Salmonella typhi ATCC 24915 at 200 ug/mL after 24 hrs by twofold serial dilution method; type: functional, organism-based; details: Salmonella enterica subsp. enterica serovar Typhi
Bacillus subtilis [13] = assay: Antibacterial activity against Bacillus subtilis ATCC 451 at 200 ug/mL after 24 hrs by twofold serial dilution method; type: functional, organism-based
Rhizopus [14] = assay: Antifungal activity against Rhizopus sp. ATCC 2915 at 200 ug/mL after 72 to 96 hrs by twofold serial dilution method; type: functional, organism-based
Escherichia coli [15] = assay: Ratio of compound MIC over streptomycin MIC for Escherichia coli ATCC 25835; type: functional

Compound | MIC (Aspergillus flavus [1]) [µg/mL] | MIC (Staphylococcus aureus) [µg/mL] | MIC (Cryptococcus neoformans [2]) [µg/mL] | MIC (Bacillus subtilis [3]) [µg/mL] | MIC (Escherichia coli [4]) [µg/mL] | MIC (Rhizopus [5]) [µg/mL] | MIC (Klebsiella pneumoniae [6]) [µg/mL] | MIC (Aspergillus niger) [µg/mL] | MIC (Candida albicans) [µg/mL] | MIC (Salmonella typhi [7]) [µg/mL] | Activity (Cryptococcus neoformans [8]) | Activity (Klebsiella pneumoniae [9]) | Activity (Aspergillus flavus [10]) | Activity (Escherichia coli [11]) | Activity (Salmonella typhi [12]) | Activity (Bacillus subtilis [13]) | Activity (Rhizopus [14]) | Ratio (Escherichia coli [15])
Clc1ccc([C@H]2N[C@@H](c3ccc(Cl)cc3)C3CCCC2/C3=N/N=c2/[nH]c(-c3ccccc3)cs2)cc1 | 25 (≈ 46.9 µM) | 25 (≈ 46.9 µM) | 200 (≈ 375 µM) | 25 (≈ 46.9 µM) | 100 (≈ 187 µM) | 50 (≈ 93.7 µM) | 100 (≈ 187 µM) | 25 (≈ 46.9 µM) | 200 (≈ 375 µM) | 50 (≈ 93.7 µM) | – | – | – | – | – | – | – | –
Cc1ccc([C@H]2N[C@@H](c3ccc(C)cc3)C3CCCC2/C3=N/N=c2/[nH]c(-c3ccccc3)cs2)cc1 | 200 (≈ 406 µM) | 200 (≈ 406 µM) | – | 50 (≈ 101 µM) | 12.5 (≈ 25.4 µM) | 12.5 (≈ 25.4 µM) | 200 (≈ 406 µM) | 50 (≈ 101 µM) | 200 (≈ 406 µM) | 200 (≈ 406 µM) | inactive | – | – | – | – | – | – | –
c1ccc(-c2cs/c(=N\N=C3\C4CCCC3[C@H](c3ccccc3)N[C@@H]4c3ccccc3)n2-c2ccccc2)cc1 | 100 (≈ 185 µM) | 25 (≈ 46.2 µM) | 50 (≈ 92.5 µM) | 100 (≈ 185 µM) | 200 (≈ 370 µM) | 200 (≈ 370 µM) | – | 200 (≈ 370 µM) | 12.5 (≈ 23.1 µM) | 100 (≈ 185 µM) | – | inactive | – | – | – | – | – | –
C[C@@H]1[C@H](O)[C@@H](C)/C=C/C=C/C=C/C=C/C=C/C=C/C=C/[C@H](O[C@@H]2O[C@H](C)[C@@H](O)[C@H](N)[C@@H]2O)C[C@@H]2O[C@](O)(C[C@@H](O)C[C@@H](O)[C@H](O)CC[C@@H](O)C[C@@H](O)CC(=O)O[C@H]1C)C[C@H](O)[C@H]2C(=O)O [AMPHOTERICIN B] | 50 (≈ 54.1 µM) | – | 25 (≈ 27.1 µM) | – | – | 25 (≈ 27.1 µM) | – | 50 (≈ 54.1 µM) | 25 (≈ 27.1 µM) | – | – | – | – | – | – | – | – | –
Fc1cccc([C@H]2N[C@@H](c3cccc(F)c3)C3CCCC2/C3=N/N=c2\scc(-c3ccccc3)n2-c2ccccc2)c1 | 200 (≈ 347 µM) | 50 (≈ 86.7 µM) | 200 (≈ 347 µM) | 100 (≈ 173 µM) | 12.5 (≈ 21.7 µM) | 100 (≈ 173 µM) | 100 (≈ 173 µM) | 25 (≈ 43.3 µM) | 12.5 (≈ 21.7 µM) | 12.5 (≈ 21.7 µM) | – | – | – | – | – | – | – | –
CN[C@@H]1[C@H](O[C@H]2[C@H](O[C@H]3[C@H](O)[C@@H](O)[C@H](N=C(N)N)[C@@H](O)[C@@H]3N=C(N)N)O[C@@H](C)[C@]2(O)C=O)O[C@@H](CO)[C@H](O)[C@H]1O [STREPTOMYCIN] | – | 50 (≈ 86 µM) | – | 12.5 (≈ 21.5 µM) | 12.5 (≈ 21.5 µM) | – | 25 (≈ 43 µM) | – | – | 50 (≈ 86 µM) | – | – | – | – | – | – | – | –
c1ccc(-c2cs/c(=N\N=C3\C4CCCC3[C@H](c3ccccc3)N[C@@H]4c3ccccc3)[nH]2)cc1 | – | 25 (≈ 53.8 µM) | 100 (≈ 215 µM) | 200 (≈ 430 µM) | – | 200 (≈ 430 µM) | 100 (≈ 215 µM) | 50 (≈ 108 µM) | 200 (≈ 430 µM) | 100 (≈ 215 µM) | – | – | inactive | inactive | – | – | – | –
Fc1ccc([C@H]2N[C@@H](c3ccc(F)cc3)C3CCCC2/C3=N/N=c2\scc(-c3ccccc3)n2-c2ccccc2)cc1 | 200 (≈ 347 µM) | 12.5 (≈ 21.7 µM) | – | 6.25 (≈ 10.8 µM) | 100 (≈ 173 µM) | 50 (≈ 86.7 µM) | 100 (≈ 173 µM) | 100 (≈ 173 µM) | 12.5 (≈ 21.7 µM) | 50 (≈ 86.7 µM) | inactive | – | – | – | – | – | – | –
COc1ccc([C@H]2N[C@@H](c3ccc(OC)cc3)C3CCCC2/C3=N/N=c2/[nH]c(-c3ccccc3)cs2)cc1 | 12.5 (≈ 23.8 µM) | 25 (≈ 47.6 µM) | 12.5 (≈ 23.8 µM) | – | 100 (≈ 191 µM) | 100 (≈ 191 µM) | 200 (≈ 381 µM) | 25 (≈ 47.6 µM) | 100 (≈ 191 µM) | – | – | – | – | – | inactive | inactive | – | –
Fc1cccc([C@H]2N[C@@H](c3cccc(F)c3)C3CCCC2/C3=N/N=c2/[nH]c(-c3ccccc3)cs2)c1 | 100 (≈ 200 µM) | 12.5 (≈ 25 µM) | 50 (≈ 99.9 µM) | – | 25 (≈ 49.9 µM) | – | 25 (≈ 49.9 µM) | 200 (≈ 400 µM) | 100 (≈ 200 µM) | 200 (≈ 400 µM) | – | – | – | – | – | inactive | inactive | –
Clc1ccccc1[C@H]1N[C@@H](c2ccccc2Cl)C2CCCC1/C2=N/N=c1/[nH]c(-c2ccccc2)cs1 | 50 (≈ 93.7 µM) | 100 (≈ 187 µM) | 6.25 (≈ 11.7 µM) | 12.5 (≈ 23.4 µM) | 6.25 (≈ 11.7 µM) | 100 (≈ 187 µM) | 100 (≈ 187 µM) | 100 (≈ 187 µM) | 25 (≈ 46.9 µM) | 25 (≈ 46.9 µM) | – | – | – | – | – | – | – | 1
Fc1ccc([C@H]2N[C@@H](c3ccc(F)cc3)C3CCCC2/C3=N/N=c2/[nH]c(-c3ccccc3)cs2)cc1 | 6.25 (≈ 12.5 µM) | 200 (≈ 400 µM) | 100 (≈ 200 µM) | 12.5 (≈ 25 µM) | 50 (≈ 99.9 µM) | 50 (≈ 99.9 µM) | 12.5 (≈ 25 µM) | 12.5 (≈ 25 µM) | 100 (≈ 200 µM) | 50 (≈ 99.9 µM) | – | – | – | – | – | – | – | –
Clc1ccc([C@H]2N[C@@H](c3ccc(Cl)cc3)C3CCCC2/C3=N/N=c2\scc(-c3ccccc3)n2-c2ccccc2)cc1 | 100 (≈ 164 µM) | 25 (≈ 41 µM) | 50 (≈ 82 µM) | 12.5 (≈ 20.5 µM) | 100 (≈ 164 µM) | 6.25 (≈ 10.3 µM) | – | 25 (≈ 41 µM) | 100 (≈ 164 µM) | 25 (≈ 41 µM) | – | inactive | – | – | – | – | – | –
